The values that follow come from patent publication US20110275559A1, “Long-Acting Y2 and/or Y4 Receptor Agonists” (Novo Nordisk A/S, priority 2008, published 2011).

Data set [1] in a line: Mini-pig PK assay (plasma half-life). To be noted: Göttingen, minipig. In short, it runs like this: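 Catheterised mini-pigs received compound i.v. at 10 nmol/kg in pH 4.0 phosphate/NaCl/tween vehicle, or alternatively i.v. or s.c. at 1–30 nmol/kg in pH 8.0 K2HPO4/tween. Stabilised plasma was sampled up to 13 days and assayed by LC-MS (LLOQ 2 nM). Half-life came from non-compartmental analysis of individual animal profiles.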

A further data set has as its target T1, Y2 receptor (Homo sapiens, UniProt P49146).
T1 construct: host or cells: ACTOne HEK-293 cells
T1 sequence (P49146 1-381): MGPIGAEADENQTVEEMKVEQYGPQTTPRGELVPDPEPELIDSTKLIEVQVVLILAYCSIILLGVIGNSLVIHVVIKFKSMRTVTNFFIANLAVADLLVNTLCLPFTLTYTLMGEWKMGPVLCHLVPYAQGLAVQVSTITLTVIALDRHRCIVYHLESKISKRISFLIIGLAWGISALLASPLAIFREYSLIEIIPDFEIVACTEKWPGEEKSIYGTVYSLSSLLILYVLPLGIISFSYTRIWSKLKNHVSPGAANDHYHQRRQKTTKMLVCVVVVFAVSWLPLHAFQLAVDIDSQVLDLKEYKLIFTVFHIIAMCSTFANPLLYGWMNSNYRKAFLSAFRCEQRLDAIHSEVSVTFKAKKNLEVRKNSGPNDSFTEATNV
As to the kind of experiment: Y2 receptor ACTOne based FLIPR assay (cAMP biosensor). Format: cell-based.

Another data set concerns the target T2, Y4 receptor (Homo sapiens, UniProt P50391).
T2 construct: host or cells: ACTOne HEK-293 cells
The data set is described as follows: Y4 receptor ACTOne based FLIPR assay (cAMP biosensor). Format: cell-based. An excerpt:
ACTOne™ is an easily scaleable cAMP biosensor HTS platform for measurement of Gs and Gi coupled 7™ receptor signalling from BD Biosciences (San Jose, Calif.). The cells express a biosensor developed around a modified rat olfactory cyclic nucleotide gated (CNG) calcium channel—a fairly non-discriminatory ion channel that responds to cAMP and cGMP. The CNG has been engineered to be cAMP selective and thus function as a cAMP responsive biosensor that signals through calcium or membrane potential responsive dyes. Y2 or Y4 receptor expressing ACTOne HEK-293 cells are obtained from BD Biosciences. The cells are loaded with a calcium responsive dye that only distributes in the cytoplasm. Probenecid, an inhibitor of the organic anion transporter is added to prevent the dye from leaving the cell. A phosphodiesterase inhibitor is added to prevent formatted cAMP from being degraded. Isoproterenol (an β1/β2 agonist) is added to activate the adenylate cyclase. When an Y2 or Y4 receptor agonist is added, the adenylate cyclase is inactivated. The decreased calcium concentration in the cytoplasm is then detected as an increase in fluorescence. Together with the test substance, Isoproterenol at a concentration matching EC80, is added to all wells. • The cells are plated out in Greiner 384-well plates. […] The plates are covered with tinfoil to avoid light (the dye can be excited by the daylight, which results in higher baseline and variation). • The FLIPR (FLIPRtetra from Molecular Devices, CA, USA) adds 1 μl sample and 1 μl isoproterenol (0.05 μM final concentration) at the same time. • The fluorescence signal from the wells is measured 330 seconds after sample addition on the FLIPR.

SMILES strings stand for the structures. Where two headings read alike, the source gives them in different places. *1 amine or outer side, *2 acyl side, *3 side chain or, on linkers, in order; H or OH if unused. Where a SMILES comes first, the peptide text is derived from it. Side-chain parts run from the residue outwards. The star is where a group is joined. C20 diacid = O=C(O)CCCCCCCCCCCCCCCCCCC(=O)*; γGlu = O=C(O)[C@H](CCC(=O)[*:2])N[*:1]; Trx = NC[C@H]1CC[C@H](C(=O)O)CC1; AEEA = NCCOCCOCC(=O)O

T2 sequence (P50391 whole entry): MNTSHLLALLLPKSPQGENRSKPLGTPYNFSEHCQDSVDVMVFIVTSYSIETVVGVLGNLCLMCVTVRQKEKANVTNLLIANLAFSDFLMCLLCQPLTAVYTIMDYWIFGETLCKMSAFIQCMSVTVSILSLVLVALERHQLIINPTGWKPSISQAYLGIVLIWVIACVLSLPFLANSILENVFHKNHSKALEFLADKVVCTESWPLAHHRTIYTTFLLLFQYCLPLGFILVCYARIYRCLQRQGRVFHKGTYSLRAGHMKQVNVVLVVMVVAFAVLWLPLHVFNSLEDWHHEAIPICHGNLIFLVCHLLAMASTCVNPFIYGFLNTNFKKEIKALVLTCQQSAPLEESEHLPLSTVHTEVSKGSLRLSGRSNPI

Regarding `CC[C@H](C)[C@H](NC(=O)[C@H](Cc1ccc(O)cc1)NC(=O)[C@H](CCCNC(=N)N)NC(=O)[C@H](CCCNC(=N)N)NC(=O)[C@H](CC(C)C)NC(=O)[C@H](CC(=O)O)NC(=O)[C@H](C)NC(=O)[C@H](C)NC(=O)[C@H](Cc1ccc(O)cc1)NC(=O)[C@H](CCC(N)=O)NC(=O)[C@H](C)NC(=O)[C@H](CC(C)C)NC(=O)[C@H](CCC(N)=O)NC(=O)[C@H](CCC(=O)O)NC(=O)[C@@H]1CCCN1C(=O)[C@@H](NC(=O)[C@H](C)NC(=O)[C@H](CC(N)=O)NC(=O)[C@H](CC(=O)O)NC(=O)CNC(=O)[C@@H]1CCCN1C(=O)[C@H](Cc1ccc(O)cc1)NC(=O)[C@@H](NC(=O)[C@@H]1CCCN1C(=O)[C@H](CCC(=O)O)NC(=O)[C@H](CC(C)C)NC(=O)[C@@H]1CCCN1)C(C)C)[C@@H](C)O)C(=O)N[C@@H](CC(N)=O)C(=O)N[C@@H](CC(C)C)C(=O)N[C@@H](CC(C)C)C(=O)N[C@H](C(=O)N[C@@H](CCCCNC(=O)COCCOCCNC(=O)COCCOCCNC(=O)CC[C@H](NC(=O)[C@H]1CC[C@H](CNC(=O)CCCCCCCCCCCCCCCCCCC(=O)O)CC1)C(=O)O)C(=O)N1CCC[C@H]1C(=O)N[C@@H](CCCNC(=N)N)C(=O)N[C@@H](Cc1ccc(O)cc1)C(N)=O)[C@@H](C)O` [SEQ ID NO: 42, N-epsilon33-[2-(2-{2-[2-(2-{2-[(S)-4-Carboxy-4-({trans-4-[(19-carboxynonadecanoylamino)methyl]cyclohexanecarbonyl}amino)butyrylamino]-ethoxy}ethoxy)acetylamino]ethoxy}ethoxy)acetyl][Leu17,Leu30,Lys33]hPP2-36] (H-PLEPVYPGDNATPEQLAQYAADLRRYINLLTK([AEEA-AEEA-γGlu-Trx-C20 diacid])PRY-NH2), the half-life (usually how long it takes for the measured level to halve) in data set [1] (in vivo, iv, 7 nmol/kg) is 116 h; in data set [1] (male, in vivo, sc, 7 nmol/kg) it was 167 h. Moreover, the EC50 at Y2 receptor and on Y4 receptor was greater than 1000 nM each time.

`CC[C@H](C)[C@H](NC(=O)[C@H](Cc1ccc(O)cc1)NC(=O)[C@H](CCCNC(=N)N)NC(=O)[C@H](CCCCNC(=O)COCCOCCNC(=O)COCCOCCNC(=O)CC[C@H](NC(=O)[C@H]1CC[C@H](CNC(=O)CCCCCCCCCCCCCCCCCCC(=O)O)CC1)C(=O)O)NC(=O)[C@H](CC(C)C)NC(=O)[C@H](CC(=O)O)NC(=O)[C@H](C)NC(=O)[C@H](C)NC(=O)[C@H](Cc1ccc(O)cc1)NC(=O)[C@H](CCC(N)=O)NC(=O)[C@H](C)NC(=O)[C@H](CC(C)C)NC(=O)[C@H](CCC(N)=O)NC(=O)[C@H](CCC(=O)O)NC(=O)[C@@H]1CCCN1C(=O)[C@@H](NC(=O)[C@H](C)NC(=O)[C@H](CC(N)=O)NC(=O)[C@H](CC(=O)O)NC(=O)CNC(=O)[C@@H]1CCCN1C(=O)[C@H](Cc1ccc(O)cc1)NC(=O)[C@@H](NC(=O)[C@@H]1CCCN1C(=O)[C@H](CCC(=O)O)NC(=O)[C@H](CC(C)C)NC(=O)[C@@H]1CCCN1)C(C)C)[C@@H](C)O)C(=O)N[C@@H](CC(N)=O)C(=O)N[C@@H](CC(C)C)C(=O)N[C@@H](CC(C)C)C(=O)N[C@H](C(=O)N[C@@H](CCCNC(=N)N)C(=O)N1CCC[C@H]1C(=O)N[C@@H](CCCNC(=N)N)C(=O)N[C@@H](Cc1ccc(O)cc1)C(N)=O)[C@@H](C)O` [SEQ ID NO: 50, N-epsilon25-[2-(2-{2-[2-(2-{2-[(S)-4-Carboxy-4-({trans-4-[(19-carboxynonadecanoylamino)methyl]cyclohexanecarbonyl}amino)butyrylamino]-ethoxy}ethoxy)acetylamino]ethoxy}ethoxy)acetyl][Leu17,Lys25,Leu30]hPP2-36] (H-PLEPVYPGDNATPEQLAQYAADLK([AEEA-AEEA-γGlu-Trx-C20 diacid])RYINLLTRPRY-NH2): in data set [1] (iv, 10 nmol/kg), the half-life was 82 h. In addition, the EC50 (in general, the concentration giving half of the maximal effect) on Y2 receptor (Table 2, PP analogues, ACTOne HEK-293 cells, read-out: Y2 cAMP EC50) is greater than 1000 nM; at Y4 receptor (Table 2, PP analogues, ACTOne HEK-293 cells, read-out: Y4 cAMP EC50) it was greater than 1000 nM.

`CC[C@H](C)[C@H](NC(=O)[C@H](Cc1ccc(O)cc1)NC(=O)[C@H](CCCCNC(=O)COCCOCCNC(=O)COCCOCCNC(=O)CC[C@H](NC(=O)[C@H]1CC[C@H](CNC(=O)CCCCCCCCCCCCCCCCCCC(=O)O)CC1)C(=O)O)NC(=O)[C@H](CCCNC(=N)N)NC(=O)[C@H](CC(C)C)NC(=O)[C@H](CC(=O)O)NC(=O)[C@H](C)NC(=O)[C@H](C)NC(=O)[C@H](Cc1ccc(O)cc1)NC(=O)[C@H](CCC(N)=O)NC(=O)[C@H](C)NC(=O)[C@H](CC(C)C)NC(=O)[C@H](CCC(N)=O)NC(=O)[C@H](CCC(=O)O)NC(=O)[C@@H]1CCCN1C(=O)[C@@H](NC(=O)[C@H](C)NC(=O)[C@H](CC(N)=O)NC(=O)[C@H](CC(=O)O)NC(=O)CNC(=O)[C@@H]1CCCN1C(=O)[C@H](Cc1ccc(O)cc1)NC(=O)[C@@H](NC(=O)[C@@H]1CCCN1C(=O)[C@H](CCC(=O)O)NC(=O)[C@H](CC(C)C)NC(=O)[C@@H]1CCCN1)C(C)C)[C@@H](C)O)C(=O)N[C@@H](CC(N)=O)C(=O)N[C@@H](CC(C)C)C(=O)N[C@@H](CC(C)C)C(=O)N[C@H](C(=O)N[C@@H](CCCNC(=N)N)C(=O)N1CCC[C@H]1C(=O)N[C@@H](CCCNC(=N)N)C(=O)N[C@@H](Cc1ccc(O)cc1)C(N)=O)[C@@H](C)O` [SEQ ID NO: 45, N-epsilon26-[2-(2-{2-[2-(2-{2-[(S)-4-Carboxy-4-({trans-4-[(19-carboxynonadecanoylamino)methyl]cyclohexanecarbonyl}amino)butyrylamino]-ethoxy}ethoxy)acetylamino]ethoxy}ethoxy)acetyl][Leu17,Lys26,Leu30]hPP2-36] (H-PLEPVYPGDNATPEQLAQYAADLRK([AEEA-AEEA-γGlu-Trx-C20 diacid])YINLLTRPRY-NH2; N-terminus and C-terminus assumed) had a half-life in data set [1] (in vivo, iv, 4 nmol/kg) of 58 h. Besides, the EC50 on Y2 receptor is greater than 1000 nM; on Y4 receptor, 7 nM.

For `CC[C@H](C)[C@H](NC(=O)[C@H](Cc1ccc(O)cc1)NC(=O)[C@H](CCCNC(=N)N)NC(=O)[C@H](CCCNC(=N)N)NC(=O)[C@H](CC(C)C)NC(=O)[C@H](CC(=O)O)NC(=O)[C@H](C)NC(=O)[C@H](C)NC(=O)[C@H](Cc1ccc(O)cc1)NC(=O)[C@H](CCC(N)=O)NC(=O)[C@H](C)NC(=O)[C@H](CC(C)C)NC(=O)[C@H](CCC(N)=O)NC(=O)[C@H](CCC(=O)O)NC(=O)[C@@H]1CCCN1C(=O)[C@@H](NC(=O)[C@H](C)NC(=O)[C@H](CC(N)=O)NC(=O)[C@H](CC(=O)O)NC(=O)CNC(=O)[C@@H]1CCCN1C(=O)[C@H](Cc1ccc(O)cc1)NC(=O)[C@@H](NC(=O)[C@@H]1CCCN1C(=O)[C@H](CCC(=O)O)NC(=O)[C@H](CC(C)C)NC(=O)[C@@H]1CCCN1C(=O)COCCOCCNC(=O)COCCOCCNC(=O)CC[C@H](NC(=O)[C@H]1CC[C@H](CNC(=O)CCCCCCCCCCCCCCCCCCC(=O)O)CC1)C(=O)O)C(C)C)[C@@H](C)O)C(=O)N[C@@H](CC(N)=O)C(=O)N[C@@H](CC(C)C)C(=O)N[C@@H](CC(C)C)C(=O)N[C@H](C(=O)N[C@@H](CCCNC(=N)N)C(=O)N1CCC[C@H]1C(=O)N[C@@H](CCCNC(=N)N)C(=O)N[C@@H](Cc1ccc(O)cc1)C(N)=O)[C@@H](C)O` [SEQ ID NO: 56, N-alfa-[2-(2-{2-[2-(2-{2-[(S)-4-Carboxy-4-({trans-4-[(19-carboxynonadecanoylamino)methyl]cyclohexanecarbonyl}amino)butyrylamino]-ethoxy}ethoxy)acetylamino]ethoxy}ethoxy)acetyl][Leu17,Leu30]hPP2-36] ({C20 diacid-Trx-γGlu-AEEA-AEEA}-PLEPVYPGDNATPEQLAQYAADLRRYINLLTRPRY-NH2; C-terminus assumed), the half-life in data set [1] (in vivo, iv, 6 nmol/kg) was 22 h. Besides, the EC50 at Y2 receptor was greater than 1000 nM; at Y4 receptor it was 4 nM.
